# Tested on: NF-κB signaling pathway in MT373 tumors
# Test: MT373 syngeneic sarcoma model: mouse NF-κB signaling pathway profiling panel
# Assay type: in vivo
compound,measurement,setting,value
"CCn1c(C#CCNc2ccccc2)cc2cc(CNC3CCN(C)CC3)ccc21 [Compound 1, 1-Anilino-3-{1-ethyl-5-[(1-methyl-4-piperidylamino)methyl]-1H-indol-2-yl}-2-propyne]",Bcl2a1a fold increase over or percent reduction vs vehicle control,"150 mg/kg BIDx1, 48 h",67.64 ± 10.73 fold or %
same,Bcl2l1 fold increase over or percent reduction vs vehicle control,"150 mg/kg BIDx1, 48 h",7.49 ± 1.18 fold or %
same,Bcl3 fold increase over or percent reduction vs vehicle control,"150 mg/kg BIDx1, 48 h",1.35 ± 0.16 fold or %
same,Bcl10 fold increase over or percent reduction vs vehicle control,"150 mg/kg BIDx1, 48 h",36.06 ± 3.54 fold or %
same,Birc3 fold increase over or percent reduction vs vehicle control,"150 mg/kg BIDx1, 48 h",1.20 ± 0.28 fold or %
same,Card10 fold increase over or percent reduction vs vehicle control,"150 mg/kg BIDx1, 48 h",1.20 ± 0.11 fold or %
same,Card11 fold increase over or percent reduction vs vehicle control,"150 mg/kg BIDx1, 48 h",1.67 ± 0.42 fold or %
same,Casp1 fold increase over or percent reduction vs vehicle control,"150 mg/kg BIDx1, 48 h",10.29 ± 10.66 fold or %
same,Casp8 fold increase over or percent reduction vs vehicle control,"150 mg/kg BIDx1, 48 h",1.02 ± 0.01 fold or %
same,Ccl2 fold increase over or percent reduction vs vehicle control,"150 mg/kg BIDx1, 48 h",67.28 ± 5.26 fold or %
same,Ccl5 fold increase over or percent reduction vs vehicle control,"150 mg/kg BIDx1, 48 h",8.18 ± 19.38 fold or %
same,Cd27 fold increase over or percent reduction vs vehicle control,"150 mg/kg BIDx1, 48 h",1.46 ± 0.26 fold or %
same,Cd40 fold increase over or percent reduction vs vehicle control,"150 mg/kg BIDx1, 48 h",39.20 ± 14.39 fold or %
same,Cflar fold increase over or percent reduction vs vehicle control,"150 mg/kg BIDx1, 48 h",7.92 ± 8.21 fold or %
same,Chuk fold increase over or percent reduction vs vehicle control,"150 mg/kg BIDx1, 48 h",4.04 ± 12.31 fold or %
same,Crebbp fold increase over or percent reduction vs vehicle control,"150 mg/kg BIDx1, 48 h",1.12 ± 0.05 fold or %
same,Csf1 fold increase over or percent reduction vs vehicle control,"150 mg/kg BIDx1, 48 h",11.36 ± 7.30 fold or %
same,Csf2 fold increase over or percent reduction vs vehicle control,"150 mg/kg BIDx1, 48 h",62.24 ± 8.70 fold or %
same,Csf3 fold increase over or percent reduction vs vehicle control,"150 mg/kg BIDx1, 48 h",0.37 ± 11.46 fold or %
same,Egfr fold increase over or percent reduction vs vehicle control,"150 mg/kg BIDx1, 48 h",24.42 ± 4.76 fold or %
same,Egr1 fold increase over or percent reduction vs vehicle control,"150 mg/kg BIDx1, 48 h",42.64 ± 12.12 fold or %
same,Eif2ak2 fold increase over or percent reduction vs vehicle control,"150 mg/kg BIDx1, 48 h",1.01 ± 0.03 fold or %
same,Elk1 fold increase over or percent reduction vs vehicle control,"150 mg/kg BIDx1, 48 h",11.87 ± 8.21 fold or %
same,F2r fold increase over or percent reduction vs vehicle control,"150 mg/kg BIDx1, 48 h",19.79 ± 4.23 fold or %
same,Fadd fold increase over or percent reduction vs vehicle control,"150 mg/kg BIDx1, 48 h",7.23 ± 4.56 fold or %
same,Fasl fold increase over or percent reduction vs vehicle control,"150 mg/kg BIDx1, 48 h",5.96 ± 19.38 fold or %
same,Fos fold increase over or percent reduction vs vehicle control,"150 mg/kg BIDx1, 48 h",47.30 ± 7.08 fold or %
same,Hmox1 fold increase over or percent reduction vs vehicle control,"150 mg/kg BIDx1, 48 h",27.03 ± 7.50 fold or %
same,Icam1 fold increase over or percent reduction vs vehicle control,"150 mg/kg BIDx1, 48 h",3.83 ± 17.26 fold or %
same,Ifng fold increase over or percent reduction vs vehicle control,"150 mg/kg BIDx1, 48 h",43.46 ± 15.02 fold or %
same,Ikbkb fold increase over or percent reduction vs vehicle control,"150 mg/kg BIDx1, 48 h",1.24 ± 0.09 fold or %
same,Ikbke fold increase over or percent reduction vs vehicle control,"150 mg/kg BIDx1, 48 h",1.71 ± 28.42 fold or %
same,Ikbkg fold increase over or percent reduction vs vehicle control,"150 mg/kg BIDx1, 48 h",3.73 ± 5.88 fold or %
same,Il1a fold increase over or percent reduction vs vehicle control,"150 mg/kg BIDx1, 48 h",28.88 ± 7.08 fold or %
same,Il1b fold increase over or percent reduction vs vehicle control,"150 mg/kg BIDx1, 48 h",18.73 ± 5.15 fold or %
same,Il1r1 fold increase over or percent reduction vs vehicle control,"150 mg/kg BIDx1, 48 h",22.37 ± 5.01 fold or %
same,Il10 fold increase over or percent reduction vs vehicle control,"150 mg/kg BIDx1, 48 h",1.15 ± 0.09 fold or %
same,Irak1 fold increase over or percent reduction vs vehicle control,"150 mg/kg BIDx1, 48 h",1.00 ± 2.36 fold or %
same,Irak2 fold increase over or percent reduction vs vehicle control,"150 mg/kg BIDx1, 48 h",17.08 ± 1.54 fold or %
same,Irf1 fold increase over or percent reduction vs vehicle control,"150 mg/kg BIDx1, 48 h",7.15 ± 7.58 fold or %
same,Jun fold increase over or percent reduction vs vehicle control,"150 mg/kg BIDx1, 48 h",44.92 ± 3.26 fold or %
same,Lta fold increase over or percent reduction vs vehicle control,"150 mg/kg BIDx1, 48 h",57.16 ± 12.86 fold or %
same,Ltbr fold increase over or percent reduction vs vehicle control,"150 mg/kg BIDx1, 48 h",13.21 ± 2.85 fold or %
same,Map3k1 fold increase over or percent reduction vs vehicle control,"150 mg/kg BIDx1, 48 h",1.74 ± 0.24 fold or %
same,Mapk3 fold increase over or percent reduction vs vehicle control,"150 mg/kg BIDx1, 48 h",3.13 ± 7.94 fold or %
same,Myd88 fold increase over or percent reduction vs vehicle control,"150 mg/kg BIDx1, 48 h",1.17 ± 0.06 fold or %
same,Nfkb1 fold increase over or percent reduction vs vehicle control,"150 mg/kg BIDx1, 48 h",1.04 ± 0.04 fold or %
same,Nfkb2 fold increase over or percent reduction vs vehicle control,"150 mg/kg BIDx1, 48 h",1.17 ± 0.11 fold or %
same,Nfkbia fold increase over or percent reduction vs vehicle control,"150 mg/kg BIDx1, 48 h",1.14 ± 0.15 fold or %
same,Nod1 fold increase over or percent reduction vs vehicle control,"150 mg/kg BIDx1, 48 h",1.49 ± 0.08 fold or %
same,Raf1 fold increase over or percent reduction vs vehicle control,"150 mg/kg BIDx1, 48 h",0.48 ± 5.31 fold or %
same,Rel fold increase over or percent reduction vs vehicle control,"150 mg/kg BIDx1, 48 h",1.30 ± 0.16 fold or %
same,Rela fold increase over or percent reduction vs vehicle control,"150 mg/kg BIDx1, 48 h",1.07 ± 0.01 fold or %
same,Relb fold increase over or percent reduction vs vehicle control,"150 mg/kg BIDx1, 48 h",1.09 ± 0.07 fold or %
same,Ripk1 fold increase over or percent reduction vs vehicle control,"150 mg/kg BIDx1, 48 h",1.19 ± 0.07 fold or %
same,Ripk2 fold increase over or percent reduction vs vehicle control,"150 mg/kg BIDx1, 48 h",24.29 ± 6.23 fold or %
same,Slc20a1 fold increase over or percent reduction vs vehicle control,"150 mg/kg BIDx1, 48 h",40.28 ± 6.82 fold or %
same,Smad3 fold increase over or percent reduction vs vehicle control,"150 mg/kg BIDx1, 48 h",1.04 ± 0.08 fold or %
same,Stat1 fold increase over or percent reduction vs vehicle control,"150 mg/kg BIDx1, 48 h",1.36 ± 0.15 fold or %
same,Tbk1 fold increase over or percent reduction vs vehicle control,"150 mg/kg BIDx1, 48 h",1.01 ± 6.05 fold or %
same,Tlr1 fold increase over or percent reduction vs vehicle control,"150 mg/kg BIDx1, 48 h",1.63 ± 0.28 fold or %
same,Tlr2 fold increase over or percent reduction vs vehicle control,"150 mg/kg BIDx1, 48 h",1.24 ± 0.15 fold or %
same,Tlr3 fold increase over or percent reduction vs vehicle control,"150 mg/kg BIDx1, 48 h",1.00 ± 1.44 fold or %
same,Tlr4 fold increase over or percent reduction vs vehicle control,"150 mg/kg BIDx1, 48 h",6.31 ± 9.66 fold or %
same,Tlr6 fold increase over or percent reduction vs vehicle control,"150 mg/kg BIDx1, 48 h",1.33 ± 0.08 fold or %
same,Tlr9 fold increase over or percent reduction vs vehicle control,"150 mg/kg BIDx1, 48 h",1.92 ± 0.29 fold or %
same,Tnf fold increase over or percent reduction vs vehicle control,"150 mg/kg BIDx1, 48 h",56.86 ± 13.49 fold or %
same,Tnfaip3 fold increase over or percent reduction vs vehicle control,"150 mg/kg BIDx1, 48 h",1.26 ± 0.33 fold or %
same,Tnfrsf1a fold increase over or percent reduction vs vehicle control,"150 mg/kg BIDx1, 48 h",1.35 ± 0.08 fold or %
same,Tnfrsf1b fold increase over or percent reduction vs vehicle control,"150 mg/kg BIDx1, 48 h",1.66 ± 0.08 fold or %
same,Tnfrsf10b fold increase over or percent reduction vs vehicle control,"150 mg/kg BIDx1, 48 h",11.34 ± 5.36 fold or %
same,Tnfsf10 fold increase over or percent reduction vs vehicle control,"150 mg/kg BIDx1, 48 h",16.58 ± 3.82 fold or %
same,Tnfsf14 fold increase over or percent reduction vs vehicle control,"150 mg/kg BIDx1, 48 h",1.53 ± 0.40 fold or %
same,Tollip fold increase over or percent reduction vs vehicle control,"150 mg/kg BIDx1, 48 h",2.45 ± 1.53 fold or %
same,Tradd fold increase over or percent reduction vs vehicle control,"150 mg/kg BIDx1, 48 h",1.01 ± 0.06 fold or %
same,Traf2 fold increase over or percent reduction vs vehicle control,"150 mg/kg BIDx1, 48 h",7.23 ± 7.66 fold or %
same,Traf3 fold increase over or percent reduction vs vehicle control,"150 mg/kg BIDx1, 48 h",13.20 ± 10.35 fold or %
same,Traf5 fold increase over or percent reduction vs vehicle control,"150 mg/kg BIDx1, 48 h",2.99 ± 3.31 fold or %
same,Traf6 fold increase over or percent reduction vs vehicle control,"150 mg/kg BIDx1, 48 h",1.07 ± 0.12 fold or %
same,Zap70 fold increase over or percent reduction vs vehicle control,"150 mg/kg BIDx1, 48 h",1.45 ± 0.41 fold or %
same,Agt fold increase over or percent reduction vs vehicle control,"150 mg/kg BIDx1, 72 h",2.05 ± 0.66 fold or %
same,Akt1 fold increase over or percent reduction vs vehicle control,"150 mg/kg BIDx1, 72 h",1.06 ± 0.07 fold or %
same,Atf1 fold increase over or percent reduction vs vehicle control,"150 mg/kg BIDx1, 72 h",34.00 ± 7.86 fold or %
same,Atf2 fold increase over or percent reduction vs vehicle control,"150 mg/kg BIDx1, 72 h",8.53 ± 13.61 fold or %
same,Bcl2a1a fold increase over or percent reduction vs vehicle control,"150 mg/kg BIDx1, 72 h",48.45 ± 28.65 fold or %
same,Bcl2l1 fold increase over or percent reduction vs vehicle control,"150 mg/kg BIDx1, 72 h",1.06 ± 0.18 fold or %
same,Bcl3 fold increase over or percent reduction vs vehicle control,"150 mg/kg BIDx1, 72 h",1.22 ± 0.24 fold or %
same,Bcl10 fold increase over or percent reduction vs vehicle control,"150 mg/kg BIDx1, 72 h",23.25 ± 7.71 fold or %
same,Birc3 fold increase over or percent reduction vs vehicle control,"150 mg/kg BIDx1, 72 h",1.13 ± 0.28 fold or %

# From patent publication US20230049952A1, “METHODS AND COMPOUNDS FOR RESTORING MUTANT P53 FUNCTION” (PMV Pharmaceuticals, Inc., priority 2020, published 2023)
